The source of these data is ChEMBL document CHEMBL3507680, “University of Dundee, Gates Library screen for HepG2 cell viability”.

The structures appear in SMILES notation.

The series is described as follows: Human HepG2 cell viability assay in 384 well format. In kind it is toxicity, cell-based. Details: dose 125 nL, time 70.5 hour; cytotoxicity at 70.5 h: concentration not given beside the values. The settings on record: HepG2 cells, read-out: Inhibition.
On to `CN(CC(C)(CO)CO)C(=O)Nc1cc(F)cc(Cl)c1`, for which the cytotoxicity at 70.5 h is -6.37%.

Take `CC(=O)NCC1CCN(CC2CCOc3ccccc3C2)CC1` (stereo not given): the cytotoxicity at 70.5 h was -4.25%.

With `COCCCC1CCCN(C(=O)CCc2cc(O)no2)C1` (stereo not given), the cytotoxicity at 70.5 h is -1.74%.

With `O=C1[C@@H]2CN(Cc3cc4ccccc4o3)C[C@]2(C(=O)O)CN1CC1CC1`, the cytotoxicity at 70.5 h was -4.85%.

Turning to `O=C(c1ccccn1)N1CCC(Oc2ncccc2Cl)CC1`, the cytotoxicity at 70.5 h was -2.05%.

Turning to `CC1CS(=O)(=O)CCN1CCCc1ccc(Cl)cc1` (stereo not given), the cytotoxicity at 70.5 h is -6.15%.

In the case of `O=C1[C@H]2CN(Cc3cccs3)C[C@H]2CN1c1ccsc1`, the cytotoxicity at 70.5 h was -5.8%.

As to `CCC(NCCn1cc(C)cn1)C(=O)Nc1cc(C)on1` (stereo not given), the cytotoxicity at 70.5 h worked out at 10.8%.

In the case of `Cc1ccccc1OCCCC(=O)N1CCCC(n2cncn2)C1` (stereo not given), the cytotoxicity at 70.5 h was 13%.

As for `Cc1ccc(N2C[C@@H]3CN(C(=O)NC4CCCC4)C[C@]3(C(=O)O)C2)nn1`, the cytotoxicity at 70.5 h worked out at 2.02%.

`CCC(NC(=O)CS(=O)(=O)C1CCCC1)c1cc(F)ccc1F` (stereo not given): the cytotoxicity at 70.5 h was -7.05%.

With `Clc1ccc(OCCCN2CCN(c3cnccn3)CC2)cc1`, the cytotoxicity at 70.5 h was -6.78%.

Regarding `CC(C)NC(=O)NCCCc1cc(N)n(-c2ccccc2)n1`, the cytotoxicity at 70.5 h came out at 15.9%.

Take `CCn1ncc(S(=O)(=O)NC2(CN3CCOCC3)CCCCC2)c1C`: the cytotoxicity at 70.5 h was -4.76%.

Consider `COCC(=O)N[C@H]1C[C@@H](C(=O)NCCc2cccc(Cl)c2)N(C)C1`, for which the cytotoxicity at 70.5 h is -13.3%.

In the case of `CC(=O)NCCNC(=O)NCc1ccc(Br)cc1Cl`, the cytotoxicity at 70.5 h was -0.47%.

Regarding `Cc1ccc(-c2nc(CN3CCOC(CN(C)C)C3)co2)cc1` (stereo not given), the cytotoxicity at 70.5 h is -5.51%.

In the case of `COCC(=O)N1CCC2(CC1)CC(N1CCOCC1)c1ccc(C)cc12` (stereo not given), the cytotoxicity at 70.5 h was 0.692%.

`Cc1c[nH]nc1C1CN(c2ncccn2)CCO1` (stereo not given): the cytotoxicity at 70.5 h was -3.49%.

On to `COCCCN(C)c1nc(-c2ccncc2)nc(C)c1C`, for which the cytotoxicity at 70.5 h was -5.34%.

With `Cn1c2c(c(=O)n1C)CN(C(=O)c1cnccn1)CCC2`, the cytotoxicity at 70.5 h was -8.23%.

With `COc1ccc(C2=CCN(C(=O)CN(C)CC(C)C#N)CC2)cc1` (stereo not given), the cytotoxicity at 70.5 h was found to be 44.4%.

For the compound `CC(O)CN1CCN(C(=O)CN(C)c2ccc(C#N)cn2)CC1` (stereo not given), the cytotoxicity at 70.5 h was determined as 10.3%.

As to `Cc1ccsc1[C@@H]1CCN(C(=O)CCc2cc(O)no2)C[C@H]1O`, the cytotoxicity at 70.5 h is -15.1%.

Take `C[C@]1(O)CN(CC(=O)N2CCCC2)CC[C@@H]1Oc1cccc(F)c1`: the cytotoxicity at 70.5 h came out at 17.5%.

Consider `NC(=O)c1ccc(C2CCCN2C(=O)CCc2nc3ccccc3s2)s1` (stereo not given), for which the cytotoxicity at 70.5 h is -1.87%.

Turning to `O=C(CN1CCCC1)Nc1c2c(cc3c1CCC3)CCC2`, the cytotoxicity at 70.5 h was -4.72%.

In the case of `Cc1ccc(C(=O)Nc2cccc3c2C(=O)NC3)c(C)n1`, the cytotoxicity at 70.5 h was found to be 2.51%.

For the compound `O=C(CCc1cc(Cl)no1)N1CCCCC1CCn1ccnc1` (stereo not given), the cytotoxicity at 70.5 h was -5.27%.

Consider `CCCOc1cc(C)ccc1NC(=O)NCCC(=O)N(C)C`, for which the cytotoxicity at 70.5 h is -2.29%.

For the compound `Cc1ncsc1CCC(=O)NCc1csc(N(C)C)n1`, the cytotoxicity at 70.5 h was -1.1%.

`CCOc1cccc(NC(=O)c2cscn2)n1`: the cytotoxicity at 70.5 h is -9.11%.

Take `O=S(=O)(c1ccccc1)N1CCC[C@]2(C[C@H](OCC3CC3)CO2)C1`: the cytotoxicity at 70.5 h is -9.34%.

As to `CC(C1CCN(Cc2c(Cl)ccc(O)c2Cl)CC1)N1CCN(C)CC1` (stereo not given), the cytotoxicity at 70.5 h is -4.03%.

Take `OCCCN1CCCC1c1ccc(Br)cc1` (stereo not given): the cytotoxicity at 70.5 h is -9.27%.

Take `Cc1cc(C(=O)N2CC[C@@H]3CN(S(C)(=O)=O)CCO[C@@H]3C2)c(C)o1`: the cytotoxicity at 70.5 h is -5.13%.

With `NC(=O)C1CCN(c2nc3nccc(-c4ccncc4)c3c(=O)[nH]2)CC1`, the cytotoxicity at 70.5 h was -1.26%.

For `CN1CC(Nc2nc3c(cnn3-c3ccccc3)c(=O)[nH]2)CCC1=O` (stereo not given), the cytotoxicity at 70.5 h was -10.2%.

For the compound `CCN(CC)Cc1cnc2n1CCN(Cc1c(C)noc1C)CC2`, the cytotoxicity at 70.5 h was 5.41%.

Consider `CSCCC(NC(N)=O)C(=O)NCc1cnn(-c2ccccc2)c1` (stereo not given), for which the cytotoxicity at 70.5 h came to 8.76%.

Turning to `COc1ccc(C)c(NC(=O)NCc2ncnn2C)c1`, the cytotoxicity at 70.5 h stood at 3.43%.

With `CC(C)CCN(C(=O)c1ccc(-n2ncc(C#N)c2N)cc1)C1CC1`, the cytotoxicity at 70.5 h was -6.84%.

In the case of `CN(Cc1ccsc1)Cc1nc(-c2ccncc2)no1`, the cytotoxicity at 70.5 h was 20.5%.

Take `O=S(=O)(CCN1CCOC(Cn2cccn2)C1)c1ccccc1` (stereo not given): the cytotoxicity at 70.5 h was -7.12%.

With `CCOC(=O)Cc1n[nH]c(-c2cncc(Br)c2)n1`, the cytotoxicity at 70.5 h was 7.76%.

As for `NCC(=O)N1CCCC1c1nccnc1Nc1ncccn1` (stereo not given), the cytotoxicity at 70.5 h is -1.95%.

With `CN(C)C(=O)N1C[C@H]2CCC[C@@]2(COc2ccccn2)C1`, the cytotoxicity at 70.5 h was -8.44%.

With `O=C1O[C@@H]2CN(Cc3ccsc3)C[C@@H]2N1Cc1ccccn1`, the cytotoxicity at 70.5 h came to 2.38%.

On to `Cc1nnc2n1CCN(Cc1ncc(-c3ccc(F)cc3)o1)C2`, for which the cytotoxicity at 70.5 h was -1.84%.

Regarding `CCc1nc(CN2CCCN(C(=O)c3cnc[nH]3)CC2)cs1`, the cytotoxicity at 70.5 h is -14.3%.

For the compound `CCc1nc(N2CCCC(O)(CO)CC2)ncc1C` (stereo not given), the cytotoxicity at 70.5 h is -0.208%.

`Cc1ccc(NC(=O)c2nc3c(s2)CCCN3C(=O)C2CC2)cn1`: the cytotoxicity at 70.5 h was 3.07%.

As for `CN1C(Cn2cccn2)C[C@@H]2CN(Cc3nccs3)CC[C@@H]21` (stereo not given in full), the cytotoxicity at 70.5 h was -5.16%.

In the case of `COc1cccc(CC2CCCN2CCCO)c1` (stereo not given), the cytotoxicity at 70.5 h was -2.11%.

On to `CSCC(=O)N1CCCN(c2ccccc2C)CC1`, for which the cytotoxicity at 70.5 h is -4.65%.

On to `COc1ccnc(N2CCN(Cc3nc(-c4ccoc4)no3)CC2)c1`, for which the cytotoxicity at 70.5 h is -0.129%.

With `CN1CCO[C@H]2CN(C(=O)c3ccncc3F)C[C@H]21`, the cytotoxicity at 70.5 h is -3.39%.

Regarding `Cn1cc(S(=O)(=O)NC(=O)C2(c3cccc(Cl)c3)CC2)cn1`, the cytotoxicity at 70.5 h is -10.1%.

Take `CS(=O)(=O)CCOCCNc1ccc2ccc(F)cc2n1`: the cytotoxicity at 70.5 h is -3.21%.

As for `Cc1noc(C)c1CN1CC[C@@H]2O[C@H](COCC3CC3)CC[C@@H]21`, the cytotoxicity at 70.5 h is -4.64%.

For the compound `COc1ccc(C(=O)N2CCCCC2Cn2cccn2)c(F)c1` (stereo not given), the cytotoxicity at 70.5 h is -13.3%.

Take `CCc1cnc(NCc2nc(COC)no2)nc1`: the cytotoxicity at 70.5 h is -11.1%.

For `CN(Cc1ccc(F)cc1)CC1(O)CCN(C(=O)c2ccccn2)C1` (stereo not given), the cytotoxicity at 70.5 h is -12.9%.

As to `NC(=O)N1CCC2(CCN(Cc3cccc(F)c3)CC2)CC1`, the cytotoxicity at 70.5 h was -7.24%.

As to `CC(Cn1cccn1)NCc1nc(-c2ccc3c(c2)OCO3)no1` (stereo not given), the cytotoxicity at 70.5 h was 13%.

On to `CN1CC(C(=O)NC(C)(C)C)CC1=O` (stereo not given), for which the cytotoxicity at 70.5 h was -9.06%.

Consider `Cc1cccc(CN2CCCn3c(nnc3CN3CCCC3=O)C2)n1`, for which the cytotoxicity at 70.5 h is -9.11%.

On to `CCc1nnc2n1CCN(C(=O)c1cnn(C)c1C1CC1)C2`, for which the cytotoxicity at 70.5 h came to 8.38%.

As for `CCOc1nc2cnccc2n(CC(=O)Nc2ccccc2OC)c1=O`, the cytotoxicity at 70.5 h was -7.54%.

`Cc1nnc2n1CCN(CC(=O)Nc1cc(C(C)C)no1)C2`: the cytotoxicity at 70.5 h is -8.51%.

`COc1ccc(C(C)NC(=O)Nc2nccs2)cc1OC` (stereo not given): the cytotoxicity at 70.5 h is -8.99%.

Regarding `Cc1noc(C(C)N2CCN(CC(=O)N3CCCC3)CC2)n1` (stereo not given), the cytotoxicity at 70.5 h was -1.93%.

On to `CC(C)c1nnc2n1CCN(CC(=O)Nc1nncs1)C2`, for which the cytotoxicity at 70.5 h was -6.91%.

On to `O=C(c1cscn1)N1CCC2(CN(Cc3ccoc3)C2)C1`, for which the cytotoxicity at 70.5 h was -9.97%.

For `Cc1cc2c(cc1Cl)C=CC1(CCN(CC(=O)N3CCCC3)CC1)O2`, the cytotoxicity at 70.5 h amounted to 2.51%.

As to `CCCN1CCN(c2ccc(-c3nc(C)no3)cn2)CC1`, the cytotoxicity at 70.5 h came to 13%.

For the compound `CN(C)c1ccc(C(=O)NCCCc2ccccn2)cn1`, the cytotoxicity at 70.5 h is -1.92%.

As to `Cc1cc(C)n(CC2CN(CCOc3ccc(C#N)cc3)CCO2)n1` (stereo not given), the cytotoxicity at 70.5 h was -4.48%.

On to `O=C(NCC1(O)CCc2ccccc21)Nc1ccc2c(c1)OCO2` (stereo not given), for which the cytotoxicity at 70.5 h is -3.18%.

In the case of `COc1ccccc1OCCC(=O)NCc1ncc(C)c(OC)c1C`, the cytotoxicity at 70.5 h was -4.64%.

`CCOc1ccc(CC(CNC(=O)c2ccc(C)o2)C(N)=O)cc1` (stereo not given): the cytotoxicity at 70.5 h is -10.7%.

Turning to `c1ccc(CN2CCNCC(Cc3cnccn3)C2)cc1` (stereo not given), the cytotoxicity at 70.5 h is -1.06%.

As to `CN1CCN([C@@H]2CCN(Cc3cccc(-n4cccn4)c3)C[C@H]2O)CC1`, the cytotoxicity at 70.5 h came out at 2.97%.

Consider `O=C(CC1CC1)N1CCC2(CCCN(c3ncccn3)C2)CC1`, for which the cytotoxicity at 70.5 h is -10.9%.

Consider `Cc1cc(C(=O)N2CC[C@@H]3CN(C)S(=O)(=O)[C@@H]3CC2)no1`, for which the cytotoxicity at 70.5 h is -7.25%.

`Cc1nccn1C1CCCN(C(=O)c2cc(O)nc3ccccc23)C1` (stereo not given): the cytotoxicity at 70.5 h is 12.3%.

`O=C(CCc1cc2n(n1)CCCN(C(=O)c1cccnc1)C2)NC1CC1`: the cytotoxicity at 70.5 h was -2.07%.

For `O=C(CO)N1CCOC2(CCCN(c3ncc(F)cn3)C2)C1` (stereo not given), the cytotoxicity at 70.5 h was -0.965%.

As to `Cc1noc(C)c1CN1CCn2nc(CCC(=O)N3CCCC3)cc2C1`, the cytotoxicity at 70.5 h is -2.3%.

Consider `CC(C)COc1cccc(-c2nc3c([nH]2)CCNC3)c1`, for which the cytotoxicity at 70.5 h amounted to 3.41%.

On to `c1ccc(CO[C@H]2CC[C@H]3[C@H]2OCCN3Cc2nccs2)nc1`, for which the cytotoxicity at 70.5 h was determined as 1.15%.

For the compound `O=C(CO)N1CCC(c2ccnc(Nc3cc(C(F)(F)F)ccn3)n2)C1` (stereo not given), the cytotoxicity at 70.5 h was -3.68%.

Turning to `COCCN1CCc2ncnc(NC(C)C)c2CC1`, the cytotoxicity at 70.5 h is -5.11%.

With `COCCNC(=O)C1(CCCc2cccnc2)CCCN1C` (stereo not given), the cytotoxicity at 70.5 h came to 13.5%.

As to `CCOCCCn1c(NC(=O)c2cc(C)on2)nc2ccccc21`, the cytotoxicity at 70.5 h amounted to 9.94%.

For the compound `CCc1nc(CN2CCN(C(=O)Cc3c(C)noc3C)CC2)cs1`, the cytotoxicity at 70.5 h is -10.4%.

`Cc1ccccc1C(C(=O)N(C)CCc1cn[nH]c1)N(C)C` (stereo not given): the cytotoxicity at 70.5 h is -7.29%.

Turning to `CCOc1ccc(NC(=O)N(CCN(C)C)C(C)c2ccncc2)cc1` (stereo not given), the cytotoxicity at 70.5 h came out at 13.6%.

Turning to `CC(C)CC(CO)NS(=O)(=O)Cc1ccon1` (stereo not given), the cytotoxicity at 70.5 h was -6.44%.

`CCOc1ccc(C#N)cc1NCc1cc(C)on1`: the cytotoxicity at 70.5 h came to 27.9%.
